Measured values: patent publication US6461997B1, “Triazole sulfones having herbicidal activity” (Monsanto Technology LLC, priority 1999, dated 2002)

What was measured:
[1] = tested on: STEME (common chickweed); assay: Pre-emergence herbicidal activity, cool season; format: in vivo, Stellaria media; conditions: lowest tested rate with 80% or greater inhibition; rates 300, 100, 30, 10 g/ha; about 14 days
Outline: (§1)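 Seeds sown in sterilised fertilised topsoil received surface-applied compound in 50:50 acetone/water, typically at 300, 100, 30 and 10 g/ha, then greenhouse-grown at 30/21° C (warm-season species) or 18/13° C (cool-season species). Percent inhibition versus untreated plants was scored at about 14 days, giving GR80; an asterisk marks activity short of 80% at the top rate.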

[2] = tested on: SORVU (shattercane); assay: Pre-plant incorporated (PPI) herbicidal activity, warm season; format: in vivo, Sorghum vulgare
Method: (§2) In another set of tests, the pre-plant incorporated (PPI) activity of compounds of this invention was evaluated on the same species as for the pre-emergence tests described above. In the PPI tests the following procedure, designed to simulate PPI application, was used.
(§3) A pre-prepared topsoil mixture (described above) was placed in a pot and compacted to a depth of 1.0 to 1.25 cm from the top of the pot. Seeds of each of several monocotyledonous and dicotyledonous annual plant species were placed on top of the soil. A sufficient quantity of soil to cover the seeds and level fill the pot was weighed into an open container. A known amount of the test compound was dissolved or suspended in an organic solvent and applied by spraying to this cover soil. The cover soil was thoroughly mixed to distribute the test compound throughout the cover soil, and was then applied as a cover layer over the seeds. Untreated soil was used as a cover layer for control pots. After treatment the plants were placed in a greenhouse where they received 0.64 cm of overhead irrigation. All subsequent watering consisted of a light overhead mist and/or subirrigation as needed for germination and growth. Tables 9 and 10 below relate to warm season plant species which were placed after pre-emergence treatment in a greenhouse with a 30/21° C. day/night temperature regime. Tables 11 and 12 below relates to cool season plant species placed after pre-emergence treatment in a greenhouse or growth chamber with an 18/13° C. day/night temperature regime. Only the compounds of Examples 1, 6, 8, 11, 13 and 15-20 were included in PPI tests.
(§4) Approximately 14 days after planting and treating, the plants were observed and herbicidal efficacy recorded as percent inhibition by comparison with untreated plants.

[3] = tested on: ABUTH (velvetleaf); assay: as above; format: in vivo, Abutilon theophrasti
Method: as §2, §3, §4

[4] = tested on: SOLNI (black nightshade); assay: as above; format: in vivo, Solanum nigrum
Method: as §2, §3, §4

[5] = tested on: POROL (common purslane); assay: Pre-emergence herbicidal activity, warm season; format: in vivo, Portulaca oleracea; conditions: GR80 = lowest tested rate (300, 100, 30, 10 g/ha) with 80% or greater inhibition; approx. 14 days after treating; 30/21° C.
Outline: as §1

[6] = tested on: rice (ORYSA); assay: Selectivity test, PPI, warm season crop; format: in vivo, Oryza sativa; conditions: PPI application
Method: as §3, §4
Additional pre-emergence and PPI tests were conducted by the procedures described above, on warm and cool season weed species in the presence of crop species, to assess herbicidal selectivity. Crop species included in warm season tests were corn (Zea mays, ZEAMX), rice (Oryza sativa, ORYSA) and soybean (Glycine max, GLYMX). Crop species included in cool season tests were wheat (Triticum aestivum, TRZAW), barley (Hordeunm vulgare, HORVX) and oilseed rape (Brassica napus, BRSNS).
Tables 15 and 16 relate to pre-emergence and PPI tests respectively on warm season species. Table 17 relates to pre-emergence tests on cool season species.

[7] = tested on: AMARE (redroot pigweed); assay: Pre-emergence herbicidal activity, warm season; format: in vivo, Amaranthus retroflexus; conditions: for Pre-emergence activity (GR80) AMARE: GR80 = lowest tested rate (300, 100, 30, 10 g/ha) with 80% or greater inhibition, approx. 14 days after treating, 30/21° C.
Outline: as §1

[8] = tested on: LAMPU (purple deadnettle); assay: Pre-plant incorporated (PPI) herbicidal activity, cool season; format: in vivo, Lamium purpureum; conditions: for Percent inhibition LAMPU: weed, PPI application
Method: as §2, §3, §4

[9] = tested on: ECHCG (barnyardgrass); assay: Pre-plant incorporated (PPI) herbicidal activity, warm season; format: in vivo, Echinochloa crus-galli
Method: as §2, §3, §4

[10] = pre-plant incorporated, lowest tested rate with 80% or greater inhibition, about 14 days
[11] = pre-plant incorporated, GR80 = lowest tested rate with 80% or greater inhibition, approx. 14 days after treating, 30/21° C.

CCN(CC)C(=O)n1cnc(S(=O)(=O)C(F)(F)F)n1 [Example 2]
Pre-emergence activity GR80, STEME [1]: 10 g/ha | Percent inhibition SORVU ([2]; PPI application, 30 g/ha): 50% | Percent inhibition SORVU ([2]; PPI application, 100 g/ha): 100% | Percent inhibition SORVU ([2]; PPI application, 300 g/ha): 95% | Percent inhibition SORVU ([2]; PPI application, 900 g/ha): 100% | Percent inhibition ABUTH ([3]; PPI application, 30 g/ha): 0% | Percent inhibition ABUTH ([3]; PPI application, 100 g/ha): 0% | Percent inhibition ABUTH ([3]; PPI application, 300 g/ha): 20% | Percent inhibition ABUTH ([3]; PPI application, 900 g/ha): 75% | Percent inhibition SOLNI ([4]; PPI application, 30 g/ha): 30% | Percent inhibition SOLNI ([4]; PPI application, 100 g/ha): 90% | Percent inhibition SOLNI ([4]; PPI application, 300 g/ha): 100% | Percent inhibition SOLNI ([4]; PPI application, 900 g/ha): 90% | Pre-emergence activity (GR80) POROL [5]: 100 g/ha | Percent inhibition ORYSA ([6]; 30 g/ha): 0% | Percent inhibition ORYSA ([6]; 100 g/ha): 0% | Percent inhibition ORYSA ([6]; 300 g/ha): 0% | Percent inhibition ORYSA ([6]; 900 g/ha): 30% | Pre-emergence activity (GR80) AMARE [7]: 30 g/ha | Percent inhibition LAMPU ([8]; 30 g/ha): 30% | Percent inhibition LAMPU ([8]; 100 g/ha): 70% | Percent inhibition LAMPU ([8]; 300 g/ha): 95% | Percent inhibition LAMPU ([8]; 900 g/ha): 100% | Percent inhibition ECHCG ([9]; PPI application, 30 g/ha): 40% | Percent inhibition ECHCG ([9]; PPI application, 100 g/ha): 80% | Percent inhibition ECHCG ([9]; PPI application, 300 g/ha): 100% | Percent inhibition ECHCG ([9]; PPI application, 900 g/ha): 100%

CCN(CC)C(=O)n1cnc(S(=O)(=O)C(F)F)n1 [Example 15, 1-(N,N-diethylcarbamoyl)-3-(difluoromethylsulfonyl)-1,2,4-triazole]
inhibition at 10 g/ha ([2]; Sorghum bicolor, PPI application, 10 g/ha, read-out: Percent inhibition SORVU): 10% | inhibition at 30 g/ha ([2]; Sorghum bicolor, PPI application, 30 g/ha, read-out: Percent inhibition SORVU): 60% | inhibition at 100 g/ha ([2]; Sorghum bicolor, PPI application, 100 g/ha, read-out: Percent inhibition SORVU): 100% | inhibition at 300 g/ha ([2]; Sorghum bicolor, PPI application, 300 g/ha, read-out: Percent inhibition SORVU): 100% | inhibition at 900 g/ha ([2]; Sorghum bicolor, PPI application, 900 g/ha, read-out: Percent inhibition SORVU): 100% | PPI activity GR80, SORVU [2, 10]: 300 g/ha | inhibition at 10 g/ha ([3]; Abutilon theophrasti, PPI application, 10 g/ha, read-out: Percent inhibition ABUTH): 0% | inhibition at 30 g/ha ([3]; Abutilon theophrasti, PPI application, 30 g/ha, read-out: Percent inhibition ABUTH): 0% | inhibition at 100 g/ha ([3]; Abutilon theophrasti, PPI application, 100 g/ha, read-out: Percent inhibition ABUTH): 20% | inhibition at 300 g/ha ([3]; Abutilon theophrasti, PPI application, 300 g/ha, read-out: Percent inhibition ABUTH): 50% | inhibition at 900 g/ha ([3]; Abutilon theophrasti, PPI application, 900 g/ha, read-out: Percent inhibition ABUTH): 40% | PPI activity (GR80) ABUTH [3, 11]: 100 g/ha | inhibition at 10 g/ha ([4]; Solanum nigrum, PPI application, 10 g/ha, read-out: Percent inhibition SOLNI): 0% | inhibition at 30 g/ha ([4]; Solanum nigrum, PPI application, 30 g/ha, read-out: Percent inhibition SOLNI): 0% | inhibition at 100 g/ha ([4]; Solanum nigrum, PPI application, 100 g/ha, read-out: Percent inhibition SOLNI): 20% | inhibition at 300 g/ha ([4]; Solanum nigrum, PPI application, 300 g/ha, read-out: Percent inhibition SOLNI): 100% | inhibition at 900 g/ha ([4]; Solanum nigrum, PPI application, 900 g/ha, read-out: Percent inhibition SOLNI): 99% | PPI activity (GR80) SOLNI [4, 11]: 100 g/ha | Pre-emergence activity (GR80) POROL [5]: 100 g/ha | inhibition at 10 g/ha ([6]; Oryza sativa, 10 g/ha, read-out: Percent inhibition ORYSA): 0% | inhibition at 30 g/ha ([6]; Oryza sativa, 30 g/ha, read-out: Percent inhibition ORYSA): 0% | inhibition at 100 g/ha ([6]; Oryza sativa, 100 g/ha, read-out: Percent inhibition ORYSA): 0% | inhibition at 300 g/ha ([6]; Oryza sativa, 300 g/ha, read-out: Percent inhibition ORYSA): 0% | inhibition at 900 g/ha ([6]; Oryza sativa, 900 g/ha, read-out: Percent inhibition ORYSA): 0% | inhibition at 10 g/ha ([7]; Amaranthus retroflexus, pre-emergence application, 10 g/ha, read-out: Percent inhibition, weed AMARE): 0% | inhibition at 30 g/ha ([7]; Amaranthus retroflexus, pre-emergence application, 30 g/ha, read-out: Percent inhibition, weed AMARE): 0% | inhibition at 100 g/ha ([7]; Amaranthus retroflexus, pre-emergence application, 100 g/ha, read-out: Percent inhibition, weed AMARE): 0% | inhibition at 300 g/ha ([7]; Amaranthus retroflexus, pre-emergence application, 300 g/ha, read-out: Percent inhibition, weed AMARE): 40% | inhibition at 900 g/ha ([7]; Amaranthus retroflexus, pre-emergence application, 900 g/ha, read-out: Percent inhibition, weed AMARE): 95% | Pre-emergence activity (GR80) AMARE [7]: 30 g/ha | PPI activity GR80, LAMPU [8, 10]: 300 g/ha | inhibition at 10 g/ha ([9]; Echinochloa crus-galli, PPI application, 10 g/ha, read-out: Percent inhibition ECHCG): 10% | inhibition at 30 g/ha ([9]; Echinochloa crus-galli, PPI application, 30 g/ha, read-out: Percent inhibition ECHCG): 50% | inhibition at 100 g/ha ([9]; Echinochloa crus-galli, PPI application, 100 g/ha, read-out: Percent inhibition ECHCG): 90% | inhibition at 300 g/ha ([9]; Echinochloa crus-galli, PPI application, 300 g/ha, read-out: Percent inhibition ECHCG): 100% | inhibition at 900 g/ha ([9]; Echinochloa crus-galli, PPI application, 900 g/ha, read-out: Percent inhibition ECHCG): 90% | PPI activity GR80, ECHCG [9, 10]: 100 g/ha
